Source: paper PMC6805555, “Characterization of resistance to a potent D-peptide HIV entry inhibitor” (Retrovirology, 2019)

What was measured:
[1] = test system: IZN36 Q577R (gp41 N-peptide mimic); assay type: binding, HIV-1 (HXB2 strain); conditions: Q577R vs. WT IZN36
Experimental: A Q577R mutant version was generated via site-directed mutagenesis using the QuikChange® protocol (Stratagene). […] The cysteine residues of these constructs were biotinylated for SPR.
Protein interaction analysis was carried out on a Biacore 3000 (GE Healthcare). Analyses were performed in triplicate at 25 °C in sterile-filtered and degassed Gibco® PBS pH 7.4 (Invitrogen) supplemented with 0.005% P20 and 1 mg/mL BSA at a flow rate of 50 μL/min. First, streptavidin (Pierce) was immobilized on CM5 chips (GE Healthcare) using the Amine Coupling Kit (GE Healthcare) following a standard coupling protocol [36]. […] Injections were performed for 1 min using KINJECT. Dissociation was monitored for 2 min, followed by a 20 μL injection (QUICKINJECT) of running buffer followed by EXTRACLEAN. Sensorgrams were processed using Scrubber2 (BioLogic Software), and data were analyzed with Prism 5.0 (GraphPad Software). The equilibrium binding data were fit using the built-in saturation binding model (one site—specific binding), normalized to Bmax, and replotted as concentration of analyte vs. % capacity.

[2] = test system: enfuvirtide resistance mutations in HIV-1; conditions: next-generation L-peptide fusion inhibitors; cited from earlier work
From the text: The remarkable conservation of this gp41 hydrophobic pocket target is indicative of its critical roles in the viral life cycle and impedes the ability of the virus to combat inhibitors that target it. The region of the HIV-1 genome encoding the pocket is conserved at both the protein level (for the role of gp41 in membrane fusion during viral entry) and nucleotide level (due to a structured RNA region in the critical Rev-response element). The only FDA-approved HIV fusion inhibitor, enfuvirtide (Fuzeon), is an L-peptide derived from the gp41 C-peptide region that targets the gp41 N-trime ...

[3] = test system: HIV-1 HXB2 Env Q577R pseudotyped HIV-1; assay type: cell-based; conditions: for C-peptide inhibition of Q577R compared to WT pseudoviruses: in words
From the text: (§1) Supplementary file 12977_2019_489_MOESM3_ESM.pdf: Additional file 3. Effect of Q577R on C-peptide Inhibitors. Single-cycle viral infectivity assays in which HIV-1 HXB2 Env (WT and Q577R) pseudotyped HIV-1 with a luciferase reporter was used to infect HOS-LES cells in the absence or presence of six fivefold dilutions of the indicated C-peptide (in quadruplicate). The data are the average of two experiments with the standard deviation in parentheses.

[4] = test system: HIV-1 strain NL4-3; conditions: similar passaging studies; cited from earlier work
From the text: This extremely high affinity for the transiently exposed gp41 trimer provides a reserve of binding energy (resistance capacitor) to prevent the viral resistance pathway of stepwise accumulation of modest affinity-disrupting mutations. Such modest mutations would not affect PIE12-trimer potency and therefore not confer a selective advantage. Viral pa ... || We previously reported the selection of HIV-1 populations resistant to PIE12-trimer by passaging the lab-adapted NL4-3 strain in the presence of escalating suboptimal (partially inhibiting) concentrations of inhibitor, starting with 1 nM. Ultimately, PIE12-trimer resistant virus propagating in 320 nM PIE12-trimer was obtained after 65 weeks of passaging. Duplicate selections yielded two highly resistant polyclonal viral pools (W1 and W2). As previously reported, similar passaging studies with enfuvirtide led to high-level resistance (> 1000-fold) within ~ 3 weeks. […] We therefore investigated the growth kinetics of the NL4-3-based replication competent Q577 point mutants and the polyclonal viral pools (W1 and W2) and compared them to that of the native virus (clonal NL4-3, WT).

[5] = test system: HIV-1 HXB2 Env WT pseudotyped HIV-1; assay type: cell-based; conditions: HXB2 Env WT pseudotyped HIV-1, luciferase reporter, HOS-LES cells, six fivefold dilutions in quadruplicate; average of two experiments (SD)
From the text: as §1

[6] = test system: Q577R in patient pre-treatment env; conditions: patient's pre-treatment env; cited from earlier work
From the text: (§2) Q577R has also been identified in viral resistance screens against other HIV-1 entry inhibitors that target the prehairpin intermediate. Against N-trimer peptides N44, N36, and IZN36, the C-peptide T2635, and the retrocyclin RC-101, Q577R is found in some or all of the resistant viruses and always accompanied by other gp41 mutation(s). By itself, Q577R provided only modest resistance to the N-trimer and C-peptide inhibitors (< threefold). Viral escape from a recently identified adnectin, 6200_A08, which similarly targets the gp41 hydrophobic pocket, ...

[7] = test system: Q577R HIV-1; conditions: other studied HIV-1 strains; cited from earlier work
From the text: as §2

[8] = test system: HIV-1; conditions: in vitro and in vivo; cited from earlier work
From the text: The remarkable conservation of this gp41 hydrophobic pocket target is indicative of its critical roles in the viral life cycle and impedes the ability of the virus to combat inhibitors that target it. The region of the HIV-1 genome encoding the pocket is conserved at both the protein level (for the role of gp41 in membrane fusion during viral entry) and nucleotide level (due to a structured RNA region in the critical Rev-response element). The only FDA-approved HIV fusion inhibitor, enfuvirtide (Fuzeon), is an L-peptide derived from the gp41 C-peptide region that targets the gp41 N-trime ... || Q577R has also been identified in viral resistance screens against other HIV-1 entry inhibitors that target the prehairpin intermediate. Against N-trimer peptides N44, N36, and IZN36, the C-peptide T2635, and the retrocyclin RC-101, Q577R is found in some or all of the resistant viruses and always accompanied by other gp41 mutation(s). By itself, Q577R provided only modest resistance to the N-trimer and C-peptide inhibitors (< threefold). Viral escape from a recently identified adnectin, 6200_A08, which similarly targets the gp41 hydrophobic pocket, ...

Molecule	weakening of the interaction [1]	weakening of the interaction (binding energy) [1] [kcal/mol]	impact of enfuvirtide resistance mutations [2]	Fold Difference ([3]; IC50 Q577R vs. WT)	C-peptide inhibition of Q577R compared to WT pseudoviruses [3]	level of resistance on passaging [4] [fold]	time to high-level resistance [4]	IC50 [5] [nM]	IC50 ([3]; HXB2 Env Q577R pseudotyped HIV-1, luciferase reporter, HOS-LES cells, six fivefold dilutions in quadruplicate, average of two experiments (SD)) [nM]	resistance provided by Q577R [6] [fold]	effect of Q577R on sensitivity [7]	emergence of gp41 resistance mutations [8]
CC(=O)N[C@H](Cc1c[nH]cn1)C(=O)N1CCC[C@@H]1C(=O)N[C@@H]1CSSC[C@H](C(=O)N[C@H](CCC(=O)O)C(=O)N[C@H](CC(C)C)C(=O)NCC(=O)N[C@H](CCCCN)C(N)=O)NC(=O)[C@@H](CC(C)C)NC(=O)[C@@H](Cc2c[nH]c3ccccc23)NC(=O)[C@@H](CCC(N)=O)NC(=O)[C@@H](Cc2c[nH]c3ccccc23)NC(=O)[C@@H](CCC(=O)O)NC(=O)[C@H]2CCCN2C(=O)[C@@H](Cc2ccc(O)cc2)NC(=O)[C@@H](CC(=O)O)NC1=O [PIE12]	~ 65 fold	2.5										
CC[C@H](C)[C@H](NC(=O)[C@H](CCC(N)=O)NC(=O)[C@H](C)NC(=O)[C@H](CCC(N)=O)NC(=O)[C@H](CCC(=O)O)NC(=O)[C@H](CC(C)C)NC(=O)[C@H](CC(C)C)NC(=O)[C@H](C)NC(=O)[C@@H](NC(=O)[C@@H](NC(=O)[C@H](CCCCN)NC(=O)[C@H](CCC(N)=O)NC(=O)[C@H](CCC(=O)O)NC(=O)[C@H](Cc1c[nH]c2ccccc12)NC(=O)[C@H](CCC(=O)O)NC(=O)[C@H](CCC(N)=O)NC(=O)[C@H](Cc1c[nH]c2ccccc12)NC(C)=O)[C@@H](C)CC)[C@@H](C)O)C(=O)N[C@@H](CCC(N)=O)C(=O)N[C@@H](CCC(N)=O)C(=O)N[C@@H](CCC(=O)O)C(=O)N[C@@H](CCCCN)C(=O)N[C@@H](CC(N)=O)C(=O)N[C@@H](CCC(=O)O)C(=O)N[C@@H](Cc1ccc(O)cc1)C(=O)N[C@@H](CCC(=O)O)C(=O)N[C@@H](CC(C)C)C(=O)N[C@@H](CCC(N)=O)C(=O)N[C@@H](CCCCN)C(=O)N[C@@H](CC(C)C)C(=O)N[C@@H](CC(=O)O)C(=O)N[C@@H](CCCCN)C(=O)N[C@@H](Cc1c[nH]c2ccccc12)C(=O)N[C@@H](C)C(=O)N[C@@H](CO)C(=O)N[C@@H](CC(C)C)C(=O)N[C@@H](Cc1c[nH]c2ccccc12)C(=O)N[C@@H](CCC(=O)O)C(=O)N[C@@H](Cc1c[nH]c2ccccc12)C(=O)N[C@@H](Cc1ccccc1)C(N)=O [T1249]			much less impacted by enfuvirtide resistance mutations	1.2	only modest differences							
enfuvirtide					only modest differences	> 1000	~ 3 weeks	1.62	5.33	25	minimally affected by Q577R	rapid emergence of gp41 resistance mutations
